Data as given in US8088806B2 (Achillion Pharmaceuticals, Inc., priority 2005, dated 2012).

Tested on: HCV replicon
Test: Replicon based assay of HCV replication inhibition (NPT ELISA)
Assay type: cell-based, Hepatitis C virus
Settings: Hepatitis C virus, replicon based assay of HCV replication inhibition; Table IV; read-out: Activity
How it was run: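 NPT (neomycin phosphotransferase) content, proportional to replicon replication, quantified by capture ELISA on day four. Before that, replicon-bearing Huh-7 cells in G418-free screening medium were exposed three days at 37° C to compound, typically six doses from 10 to 0.03 micromolar, with equal DMSO across wells.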

| SMILES | EC50 [µM] |
| --- | --- |
| O=C(O)Cc1ccc(-c2csc(Nc3ccc(OCCCCc4ccccc4)c(F)c3)n2)s1 [compound 929, 2-(5-(2-(4-(4-phenylbutoxy)-3-fluorophenylamino)thiazol-4-yl)thiophen-2-yl)acetic acid] | < 1 |
| CCOC(=O)Cc1ccc(-c2csc(Nc3ccc(OCCCCc4ccccc4)c(F)c3)n2)s1 [compound 930, ethyl 2-(5-(2-(4-(4-phenylbutoxy)-3-fluorophenylamino)thiazol-4-yl)thiophen-2-yl)acetate] | 1 to 10 |
| CCOC(=O)Cc1ccc(-c2csc(Nc3ccc(OCCCOc4ccccc4)cc3)n2)s1 [compound 931, ethyl 2-(5-(2-(4-(3-phenoxypropoxy)phenylamino)thiazol-4-yl)thiophen-2-yl)acetate] | 1 to 10 |
| CCOC(=O)Cc1ccc(-c2csc(Nc3ccc(OCCN(CC)c4ccccc4)c(C(F)(F)F)c3)n2)s1 [compound 932] | 1 to 10 |
| CCOC(=O)Cc1ccc(-c2csc(Nc3ccc(OCCOc4ccccc4)c(C(F)(F)F)c3)n2)s1 [compound 933, ethyl 2-(5-(2-(4-(2-phenoxyethoxy)-3-(trifluoromethyl)phenylamino)thiazol-4-yl)thiophen-2-yl)acetate] | 1 to 10 |
| CCOC(=O)Cc1ccc(-c2csc(Nc3ccc(OCCSc4ccccc4)c(C(F)(F)F)c3)n2)s1 [compound 934, ethyl 2-(5-(2-(4-(2-(phenylthio)ethoxy)-3-(trifluoromethyl)phenylamino)thiazol-4-yl)thiophen-2-yl)acetate] | 1 to 10 |
| Cc1cccc(CCCCOc2ccc(Nc3nc(-c4cccnc4)cs3)cc2C(F)(F)F)c1 [compound 935, N-(4-(4-m-tolylbutoxy)-3-(trifluoromethyl)phenyl)-4-(pyridin-3-yl)thiazol-2-amine] | < 1 |
| Cc1cc(Nc2nc(-c3cccnc3)cs2)ccc1OCCCCc1ccccc1 [compound 936, N-(4-(4-phenylbutoxy)-3-methylphenyl)-4-(pyridin-3-yl)thiazol-2-amine] | < 1 |
| C#CCCOc1ccc(Nc2nc(-c3cccnc3)cs2)cc1C(F)(F)F [compound 937, N-(4-(but-3-ynyloxy)-3-(trifluoromethyl)phenyl)-4-(pyridin-3-yl)thiazol-2-amine] | < 1 |
| FC(F)(F)c1cc(Nc2nc(-c3cccnc3)cs2)ccc1CCCCCc1ccccc1 [compound 938, N-(3-(trifluoromethyl)-4-(5-phenylpentyl)phenyl)-4-(pyridin-3-yl)thiazol-2-amine] | < 1 |
| COc1ncc(-c2csc(Nc3ccc(CCCCCc4ccccc4)c(C(F)(F)F)c3)n2)cn1 [compound 939, N-(3-(trifluoromethyl)-4-(5-phenylpentyl)phenyl)-4-(2-methoxypyrimidin-5-yl)thiazol-2-amine] | < 1 |
| FC(F)(F)c1cc(Nc2nc(-c3cnccn3)cs2)ccc1OCCCCc1ccccc1 [compound 940, N-(4-(4-phenylbutoxy)-3-(trifluoromethyl)phenyl)-4-(pyrazin-2-yl)thiazol-2-amine] | < 1 |
| FC(F)(F)c1cc(Nc2nc(-c3cnccn3)cs2)ccc1OCCCCc1cccs1 [compound 941, N-(4-(4-(thiophen-2-yl)butoxy)-3-(trifluoromethyl)phenyl)-4-(pyrazin-2-yl)thiazol-2-amine] | < 1 |
| O=C(O)Cc1ccc(-c2csc(Nc3ccc(OCCCc4ccco4)c(C(F)(F)F)c3)n2)s1 [compound 943, 2-(5-(2-(4-(3-(furan-2-yl)propoxy)-3-(trifluoromethyl)phenylamino)thiazol-4-yl)thiophen-2-yl)acetic acid] | < 1 |
| CCOC(=O)Cc1ccc(-c2csc(Nc3ccc(OCCCc4ccco4)c(C(F)(F)F)c3)n2)s1 [compound 944, ethyl 2-(5-(2-(4-(3-(furan-2-yl)propoxy)-3-(trifluoromethyl)phenylamino)thiazol-4-yl)thiophen-2-yl) acetate] | < 1 |
| Fc1sc(Nc2ccc(OCCCC3CCCC3)c(C(F)(F)F)c2)nc1-c1cccnc1 [compound 945, N-(4-(3-cyclopentylpropoxy)-3-(trifluoromethyl)phenyl)-5-fluoro-4-(pyridin-3-yl)thiazol-2-amine] | < 1 |
| CCCCCCCCOc1ccc(Nc2nc(-c3cnc(OC)nc3)c(F)s2)cc1C(F)(F)F [compound 946, 5-fluoro-N-(3-(trifluoromethyl)-4-(octyloxy)phenyl)-4-(2-methoxypyrimidin-5-yl)thiazol-2-amine] | < 1 |
| Fc1ccc(CCCCOc2ccc(Nc3nc(-c4cccnc4)cs3)cc2C(F)(F)F)cc1 [compound 947, N-(4-(4-(4-fluorophenyl)butoxy)-3-(trifluoromethyl)phenyl)-4-(pyridin-3-yl)thiazol-2-amine] | < 1 |
| Cc1ccc(C#CCCOc2ccc(Nc3nc(-c4cccnc4)cs3)cc2C(F)(F)F)cc1 [compound 948, N-(4-(4-p-tolylbut-3-ynyloxy)-3-(trifluoromethyl)phenyl)-4-(pyridin-3-yl)thiazol-2-amine] | < 1 |
| Cc1cccc(C#CCCOc2ccc(Nc3nc(-c4cccnc4)cs3)cc2C(F)(F)F)c1 [compound 949, N-(4-(4-m-tolylbut-3-ynyloxy)-3-(trifluoromethyl)phenyl)-4-(pyridin-3-yl)thiazol-2-amine] | < 1 |
| CCCCCOc1ccc(Nc2nc(-c3cccnc3)c(F)s2)cc1C(F)(F)F [compound 950, 5-fluoro-N-(3-(trifluoromethyl)-4-(pentyloxy)phenyl)-4-(pyridin-3-yl)thiazol-2-amine] | < 1 |
| CCCCCCCCS(=O)(=O)c1ccc(Nc2nc(-c3cccnc3)cs2)cc1 [compound 951, N-(4-(octylsulfonyl)phenyl)-4-(pyridin-3-yl)thiazol-2-amine] | < 1 |
| CCCCCCCCS(=O)(=O)c1ccc(Nc2nc(-c3cccnc3)cs2)cc1C(F)(F)F [compound 952, N-(3-(trifluoromethyl)-4-(octylsulfonyl)phenyl)-4-(pyridin-3-yl)thiazol-2-amine] | < 1 |
| CCCCCCCS(=O)(=O)CCc1ccc(Nc2nc(-c3cccnc3)cs2)cc1 [compound 953, N-(4-(2-(heptylsulfonyl)ethyl)phenyl)-4-(pyridin-3-yl)thiazol-2-amine] | 1 to 10 |
